What all share (experiment): spot-on-lawn antimicrobial activity test
Common to all, as to format: cell-based

Assay [1] concerns Pseudomonas aeruginosa ATCC 27853. Here is the method: (§1) In order to evaluate the antimicrobial activity of the purified antimicrobial peptides PG1 and PMAP36 according to the embodiment of the present invention, a spot-on-lawn test was carried out using E. coli ATCC 25922, Pseudomonas aeruginosa ATCC 27853, and Staphylococcus aureus ATCC 29213.
Assay [2] deals with Escherichia coli ATCC 25922. As to the method: as §1
The test system of assay [3] is Staphylococcus aureus ATCC 29213. Here is the method: as §1

For the substance “Protegrin 1 (RGGRLCYCRRRFCVCVGRG) [PG1, recombinantly produced antimicrobial peptide with anti-parallel beta-hairpin structure stabilized by two disulfide bonds, first discovered in pig leucocytes]”, the “Antimicrobial activity assay for the recombinant AMP produced” value stood at 15 µg/mL in assay [1], 7 µg/mL in assay [2] and 10 µg/mL in assay [3].
As for “pig myeloid antibacterial peptide36 (GRFRRLRKKTRKRLKKIGKVLKWIPPIVGSIPLGCG; listed as Sus scrofa) [PMAP36, recombinantly produced antimicrobial peptide having a helix structure]”, the “Antimicrobial activity assay for the recombinant AMP produced” value worked out at 11 µg/mL in assay [1], 10 µg/mL in assay [2] and 9 µg/mL in assay [3].

For the origin of these results see patent US11230575B2, “Insoluble fusion protein comprising antimicrobial peptide and method for producing antimicrobial peptide using same” (Konkuk University Industrial Cooperation Corp., priority 2016, dated 2022).
